Laboratory results from the NIST ThermoML archive (doi:10.1021/je101058b).

Settings: Liquid, Pycnometric method

c1ccc2c(c1)ccc1ccccc12 [phenanthrene]
molar volume [m3/mol]
Settings	377.69 K	385.54 K	393.38 K	401.26 K	409.13 K	417.06 K	424.84 K
2049 kPa	0.0001679	0.0001688	0.0001698	0.0001708	0.0001717	0.0001728	0.0001738
4049 kPa	0.0001677	0.0001686	0.0001696	0.0001705	0.0001715	0.0001726	0.0001735
6049 kPa	0.0001674	0.0001683	0.0001692	0.0001702	0.0001712	0.0001723	0.0001732
8049 kPa	0.0001672	0.0001681	0.000169	0.00017	0.000171	0.0001719	0.0001729
10049 kPa	0.000167	0.0001679	0.0001689	0.0001698	0.0001709	0.0001718	0.0001727
